14 compounds from patent US9133115B2 (ACHILLION PHARMACEUTICALS, INC., priority 2008, dated 2015) can be followed below.

The structures appear in SMILES notation. Where two headings read alike, the source gives them in different places.

In this assay the test system is HCV replicon. In words: HCV replicon replication assay (NPT ELISA) in Huh-7 replicon-containing cells. The settings on record: Hepatitis C virus. It is filed as cell-based. The protocol:
Compounds claimed herein are tested for the ability to inhibit viral replication of the Hepatitis C replicon in cultured cells in which the HCV replicon construct has been incorporated. The HCV replicon system was described by Bartenschlager, et. al (Science, 285, pp. 110-113 (1999)). The replicon system is predictive of in vivo anti-HCV activity; compounds that are active in humans uniformly evidence activity in the replicon assay.
In this assay HCV replicon containing cells are treated with different concentrations of the test compound to ascertain the ability of the test compound to suppress replication of the HCV replicon. As a positive control, HCV replicon-containing cells are treated with different concentrations of interferon alpha, a known inhibitor of HCV replication. The replicon assay system includes Neomycin Phosphotransferase (NPT) as a component of the replicon itself in order to detect the transcription of replicon gene products in the host cell. Cells in which the HCV replicon is actively replicating have high levels of NPT; the level of NPT is proportional to HCV replication. […] The NPT level of each sample is measured using a captured ELISA.
A protocol for testing compounds for the ability to inhibit viral replication of the Hepatitis C replicon cultured cells in which the replicon construct has been incorporated, follows.
The HCV replicon contains, 5′-3′, the HCV-IRES, the neomycin phosphotransferase (neo) gene, the IRES of encephalomyocarditis virus, which directs translation of HCV sequences NS3 to NS5B, and the 3′-NTR. The sequence of the HCV replicon has been deposited in GenBank (Accession no. AJ242652).
The replicon is transfected into Huh-7 cells using standard methods such as electroporation.
The equipment and materials include, but are not limited to, Huh-7 HCV replicon-containing cells, maintenance media (DMEM (Dulbecco's modified Eagle media) supplemented with 10% FBS, L-glutamine, non-essential amino acids, penicillin (100 units/ml), streptomycin (100 micrograms/ml), and 500 micrograms/ml of Geneticin (G418), screening media (DMEM supplemented with 10% FBS, L-glutamine, non-essential amino acids, penicillin (100 units/ml) and streptomycin (100 micrograms/ml)), 96 well tissue culture plates (flat bottom), 96 well plates (U bottom for drug dilution), Interferon alpha for positive control, fixation reagent (such as methanol: acetone), primary antibody (rabbit anti-NPTII), secondary antibody: Eu-N1 l, and enhancement solution.
HCV replicon-containing cells support high levels of viral RNA replicon replication when their density is suitable. Over-confluency causes decreased viral RNA replication. Therefore, cells must be kept growing in log phase in the presence of 500 micrograms/ml of G418. Generally, cells should be passed twice a week at 1: 4-6 dilution. Cell maintenance is conducted as follows:
HCV replicon-containing cells are examined under a microscope to ensure that cells growing well. Cells are rinsed once with PBS and 2 ml trypsin is added. The cell/trypsin mixture is incubated at 37° C. in a CO2 incubator for 3-5 minutes. After incubation 10 ml of complete media is added to stop the trypsinization reaction. Cells are blown gently, put into a 15 ml tube, and spun at 1200 rpm for 4 minutes. The trypsin/medium solution is removed. Medium (5 ml) is added and the cells are mixed carefully. The cells are counted.
The cells are then seeded onto 96-well plates at a density of 6000-7500 cells/100 microliters/well (6-7.5×10^5 cells/10 ml/plate). The plates are then incubated at 37° C. in a 5% CO2 incubator.
Cells are examined under a microscope approximated 24 hours after seeding and prior to adding drugs. If counting and dilution were performed correctly, cells are 60-70% confluent and nearly all cells should attach and spread evenly in the well.
HCV replicon-containing cells are rinsed with once PBS once; 2 mls of trypsin are then added. Cells are incubated at 37° C. in a 5% CO2 incubator for 3-5 minutes. […]
Background: In antiviral work, replicon cells carry a viral genome segment that copies itself.

Where [1] appears, read: 72 h, HCV replicon in Huh-7 cells, three days incubation, read-out: EC50.

Broadly, the EC50 is the concentration that produces a half-maximal response. As for `C=C[C@@H]1CC1(NC(=O)[C@@H]1C[C@@H](Oc2nc(-c3ccccn3)cc3c(Cl)c(OC)ccc23)CN1C(=O)[C@@H](CC(=O)N1CCC(C(F)(F)F)CC1)C(C)(C)C)C(=O)NS(=O)(=O)C1CC1` (mixture of isomers) [Compound 245, (2S,4R)-1-((S)-2-tert-butyl-4-oxo-4-(4-(trifluoro-methyl)piperidin-1-yl)butanoyl)-4-(5-chloro-6-methoxy-3-(pyridin-2-yl)isoquinolin-1-yloxy)-N-((S)-1-(cyclopropyl-sulfonylcarbamoyl)-2-vinylcyclo-propyl)pyrrolidine-2-carboxamide], the EC50 under setting [1] is below 1000 nM.
As to `C=C[C@@H]1CC1(NC(=O)[C@@H]1C[C@@H](Oc2cc(-c3ccccn3)nc3c(C)c(OC)ccc23)CN1C(=O)[C@@H](CC(=O)N1CCC(C(F)(F)F)CC1)C(C)(C)C)C(=O)NS(=O)(=O)C1CC1` (mixture of isomers) [Compound 249, (2S,4R)-1-((S)-2-tert-butyl-4-oxo-4-(4-(trifluoro-methyl)piperidin-1-yl)butanoyl)-N-((S)-1-(cyclopropyl-sulfonylcarbamoyl)-2-vinylcyclopropyl)-4-(7-methoxy-8-methyl-2-(pyridin-2-yl)quinolin-4-yloxy)pyrrolidine-2-carboxamide], the 50% effective concentration (EC50) under setting [1] is below 1000 nM.
Same read-out and setting: in the case of `C=C[C@@H]1CC1(NC(=O)[C@@H]1C[C@@H](Oc2cc(-c3nc(C(C)C)cs3)nc3c(C)c(OC)ccc23)CN1C(=O)[C@@H](CC(=O)N1CCC(C(F)(F)F)CC1)C(C)(C)C)C(=O)NS(=O)(=O)C1CC1` (stereo in doubt) [Compound 250, (2S,4R)-1-((S)-2-tert-butyl-4-oxo-4-(4-(trifluoro-methyl)piperidin-1-yl)butanoyl)-N-((S)-1-(cyclopropyl-sulfonylcarbamoyl)-2-vinylcyclopropyl)-4-(2-(4-isopropylthiazol-2-yl)-7-methoxy-8-methylquinolin-4-yloxy)pyrrolidine-2-carboxamide] it was below 1000 nM; in that of `C=C[C@@H]1CC1(NC(=O)[C@@H]1C[C@@H](Oc2cc(-c3cccnc3)nc3c(C)c(OC)ccc23)CN1C(=O)[C@@H](CC(=O)N1CCC(C(F)(F)F)CC1)C(C)(C)C)C(=O)NS(=O)(=O)C1CC1` (stereo in doubt) [Compound 253, (2S,4R)-1-((S)-2-tert-butyl-4-oxo-4-(4-(trifluoro-methyl)piperidin-1-yl)butanoyl)-N-((S)-1-(cyclopropyl-sulfonylcarbamoyl)-2-vinylcyclopropyl)-4-(7-methoxy-8-methyl-2-(pyridin-3-yl)quinolin-4-yloxy)pyrrolidine-2-carboxamide], below 1000 nM.
The compound `C=CC1CC1(NC(=O)[C@@H]1C[C@@H](Oc2cc(-c3ccccc3)nc3cc(OC)ccc23)CN1C(=O)[C@@H](CC(=O)O)C(C)(C)C)C(=O)OCC` (stereo partly drawn) [Compound 11, (3S)-3-((2S,4R)-2-(1-(ethoxycarbonyl)-2-vinylcyclopropylcarbamoyl)-4-(7-methoxy-2-phenylquinolin-4-yloxy)pyrrolidine-1-carbonyl)-4,4-dimethylpentanoic acid] registered a concentration giving a half-maximal response (EC50) (Huh-7) of at most 10000 nM.
As for `C=C[C@@H]1C[C@@]1(NC(=O)[C@@H]1C[C@@H](Oc2cc(-c3ccccc3)nc3cc(OC)ccc23)CN1C(=O)[C@@H](CC(=O)N1CCCCC1)C(C)(C)C)C(=O)NS(=O)(=O)C1CC1` [Compound 38, (2S,4R)-1-((S)-2-tert-butyl-4-oxo-4-(piperidin-1-yl)butanoyl)-N-((1S,2S)-1-(cyclopropylsulfonyl-carbamoyl)-2-vinylcyclopropyl)-4-(7-methoxy-2-phenylquinolin-4-yloxy)pyrrolidine-2-carboxamide], the EC50 runs as follows: under setting [1], below 1000 nM; (Huh-7) at most 10000 nM.
For `C=CC1C[C@@]1(NC(=O)[C@@H]1C[C@@H](Oc2cc(-c3ccccc3)nc3cc(OC)ccc23)CN1C(=O)C[C@H](C(=O)N1CCCCC1)C(C)(C)C)C(=O)NS(=O)(=O)C1CC1` (stereo partly drawn) [Compound 39, (2S,4R)-N-(1-(cyclo-propylsulfonyl-carbamoyl)-2-vinylcyclopropyl)-1-((S)-4,4-dimethyl-3-(piperidine-1-carbonyl)pentano-yl)-4-(7-methoxy-2-phenylquinolin-4-yloxy)pyrrolidine-2-carboxamide] the same measures were below 1000 nM and at most 10000 nM.
On to `C=CC1CC1(NC(=O)[C@@H]1C[C@@H](Oc2cc(-c3ccccc3)nc3cc(OC)ccc23)CN1C(=O)[C@@H](CC(=O)N1CCc2ccccc2C1)C(C)(C)C)C(=O)NS(=O)(=O)C1CC1` (stereo partly drawn) [Compound 40, (2S,4R)-1-((S)-2-tert-butyl-4-(3,4-dihydro-isoquinolin-2(1H)-yl)-4-oxobutanoyl)-N-(1-(cyclopropyl-sulfonyl-carbamoyl)-2-vinylcyclopropyl)-4-(7-methoxy-2-phenylquinolin-4-yloxy)pyrrolidine-2-carboxamide], for which the EC50 under setting [1] was below 1000 nM and the concentration giving a half-maximal response (EC50) (Huh-7) is at most 10000 nM.
Take `C=CC1CC1(NC(=O)[C@@H]1C[C@@H](Oc2cc(-c3ccccc3)nc3cc(OC)ccc23)CN1C(=O)[C@@H](CC(=O)N1CCCc2ccccc21)C(C)(C)C)C(=O)NS(=O)(=O)C1CC1` (stereo partly drawn) [Compound 41, (2S,4R)-1-((S)-2-tert-butyl-4-(3,4-dihydroquinolin-1(2H)-yl)-4-oxobutanoyl)-N-(1-(cyclopropyl-sulfonyl-carbamoyl)-2-vinylcyclopropyl)-4-(7-methoxy-2-phenylquinolin-4-yloxy)pyrrolidine-2-carboxamide]: the half-maximal effective concentration (EC50) under setting [1] is below 1000 nM.
With `C=CC1CC1(NC(=O)[C@@H]1C[C@@H](Oc2cc(-c3ccccc3)nc3cc(OC)ccc23)CN1C(=O)[C@@H](CC(=O)N1CCCCC1C(N)=O)C(C)(C)C)C(=O)NS(=O)(=O)C1CC1` (stereo partly drawn) [Compound 42, 1-((3S)-3-((2S,4R)-2-(1-(cyclopropyl-sulfonyl-carbamoyl)-2-vinylcyclopropyl-carbamoyl)-4-(7-methoxy-2-phenylquinolin-4-yloxy)pyrrolidine-1-carbonyl)-4,4-dimethylpentano-yl)piperidine-2-carboxamide], under setting [1], the EC50 was below 1000 nM.
On the same count and under the same terms, with `C=CC1CC1(NC(=O)[C@@H]1C[C@@H](Oc2cc(-c3ccccc3)nc3cc(OC)ccc23)CN1C(=O)[C@@H](CC(=O)N1CCC(CCC)CC1)C(C)(C)C)C(=O)NS(=O)(=O)C1CC1` (stereo partly drawn) [Compound 43, (2S,4R)-1-((S)-2-tert-butyl-4-oxo-4-(4-propylpiperidin-1-yl)butanoyl)-N-(1-(cyclopropyl-sulfonyl-carbamoyl)-2-vinylcyclopropyl)-4-(7-methoxy-2-phenylquinolin-4-yloxy)pyrrolidine-2-carboxamide] the figure was 1000 to 10000 nM; with `C=CC1CC1(NC(=O)[C@@H]1C[C@@H](Oc2cc(-c3ccccc3)nc3cc(OC)ccc23)CN1C(=O)[C@@H](CC(=O)N1CCCC(C)C1)C(C)(C)C)C(=O)NS(=O)(=O)C1CC1` (stereo partly drawn) [Compound 44, (2S,4R)-1-((2S)-2-tert-butyl-4-(3-methylpiperidin-1-yl)-4-oxobutanoyl)-N-(1-(cyclopropyl-sulfonyl-carbamoyl)-2-vinylcyclopropyl)-4-(7-methoxy-2-phenylquinolin-4-yloxy)pyrrolidine-2-carboxamide], 1000 to 10000 nM; with `C=CC1CC1(NC(=O)[C@@H]1C[C@@H](Oc2cc(-c3ccccc3)nc3cc(OC)ccc23)CN1C(=O)[C@@H](CC(=O)N1CCCC(C(N)=O)C1)C(C)(C)C)C(=O)NS(=O)(=O)C1CC1` (stereo partly drawn) [Compound 45, 1-((3S)-3-((2S,4R)-2-(1-(cyclopropyl-sulfonylcarbamoyl)-2-vinylcyclopropyl-carbamoyl)-4-(7-methoxy-2-phenylquinolin-4-yloxy)pyrrolidine-1-carbonyl)-4,4-dimethylpentano-yl)piperidine-3-carboxamide], 1000 to 10000 nM.
As for `C=CC1CC1(NC(=O)[C@@H]1C[C@@H](Oc2cc(-c3ccccc3)nc3cc(OC)ccc23)CN1C(=O)C[C@H](C(=O)NC1CCCC1)C(C)(C)C)C(=O)NS(=O)(=O)C1CC1` (some centres unmarked) [Compound 46], the EC50 under setting [1] is below 1000 nM.
